Where two headings read alike, the source gives them in different places. Residues, ends and D or L forms follow the SMILES beside them.
Key:
hPEPT1 = target: T1, hPEPT1 (Homo sapiens, UniProt P46059); assay: Electrogenic peptide transport by hPEPT1 in oocytes, two-electrode voltage clamp; type: cell-based
T1 construct: expressed in transfected cells; host or cells: Xenopus laevis oocytes (cRNA injection, 30 ng per oocyte)
T1 sequence (P46059 1-708): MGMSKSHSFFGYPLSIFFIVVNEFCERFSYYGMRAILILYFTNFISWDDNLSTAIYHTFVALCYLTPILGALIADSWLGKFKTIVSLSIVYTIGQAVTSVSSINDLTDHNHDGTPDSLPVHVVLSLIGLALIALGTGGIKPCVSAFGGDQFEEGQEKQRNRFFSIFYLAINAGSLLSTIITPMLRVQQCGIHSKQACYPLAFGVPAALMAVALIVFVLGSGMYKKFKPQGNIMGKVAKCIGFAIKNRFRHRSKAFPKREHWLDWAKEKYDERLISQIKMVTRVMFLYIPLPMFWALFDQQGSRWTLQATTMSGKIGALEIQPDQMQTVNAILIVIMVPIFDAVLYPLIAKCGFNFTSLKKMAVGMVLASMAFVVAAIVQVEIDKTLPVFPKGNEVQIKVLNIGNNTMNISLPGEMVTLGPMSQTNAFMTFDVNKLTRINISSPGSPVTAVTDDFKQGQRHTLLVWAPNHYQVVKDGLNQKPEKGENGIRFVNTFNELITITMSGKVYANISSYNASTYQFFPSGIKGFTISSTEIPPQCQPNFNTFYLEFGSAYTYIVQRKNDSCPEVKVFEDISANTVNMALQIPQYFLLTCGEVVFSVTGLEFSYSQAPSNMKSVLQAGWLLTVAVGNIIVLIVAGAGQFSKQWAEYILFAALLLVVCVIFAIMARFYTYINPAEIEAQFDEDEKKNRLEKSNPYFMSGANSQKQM
Description: The oocytes were incubated for three days at 16° C. in ORi buffer (in mM: 5 HEPES-Tris, pH 7.4, 100 NaCl, 3 KCl, 2 CaCl2, and 1 MgCl2). […] The oocytes were superfused with Ori buffer titrated to pH 6.5, the membrane potential of the oocytes was clamped to −40 mV, and inward current induced by superfusion with Ori buffer (pH 6.5) containing 5 mM of a control dipeptide or 5 mM of the tested tripeptide was measured.

[1] = tested on: RS1 at the TGN in LLC-PK1 cells; assay: Immunostaining of RS1 in subconfluent LLC-PK1 cells after brefeldin A; type: cell-based; conditions: 2 μg/ml brefeldin A, 1 min or 5 min
Description: For immunostaining, LLC-PK1 cells were grown on coverslips to about 50% confluence. The cells were washed twice with washing buffer (5 mM 3-(N-morpholino)propanesulfonic acid-NaOH, pH 7.4, 100 mM NaCl, 3 mM KCl, 2 mM CaCl2, and 1 mM MgCl2), fixed for 12 min with 4% (w/v) paraformaldehyde diluted in washing buffer, and washed twice again. Free aldehyde groups were quenched by 10 min incubation with washing buffer containing 40 mM glycine. For immunoreactions, washed cells were permeabilized by a 10-min incubation with washing buffer containing 0.25% (w/v) TritonX-114, and incubated over night at 4° C. with primary antibodies diluted in washing buffer. The dilutions of primary antibodies were as follows: rabbit-anti-RS1-Ab 1:50 (Valentin (2000), Biochim. Biophys. Acta, 1468, 367-380); QIS30 directed against SGLT1 1:400 (Kipp (2003), Am. J. Physiol., 285, C737-C749), sheep-anti-TGN46 1:125 (from Diagnostic International, Schriesheim, Germany). After incubation with primary antibodies, cells were washed 3 times with washing buffer and incubated for 1 h at room temperature with fluorochrome linked secondary antibodies (goat antibody against rabbit IgG linked to AlexaFluor 488 Molecular Probes, Leiden, Netherlands, and donkey anti-sheep IgG coupled to Cy2 from Dianova, Hamburg, Germany). […]

hOCT2 = conditions: intracellular AMG 0.1 mM, <0.01 mM or 10 mM
Description: Corresponding measurements were performed in the presence of intracellular AMG concentrations of 0.1 mM, <0.01 mM or 10 mM.

hSGLT1 [2] = assay: [14C]AMG uptake after incubating oocytes expressing hSGLT1 with or without hPEPT1 with tripeptide in the medium; type: cell-based, human; conditions: pH 6.5
Description: In a different experimental setup, oocytes were injected with SGLT1 cRNA (2.5 ng per oocyte) or with hSGLT1 cRNA (2.5 ng per oocyte) plus hPEPT1 cRNA (10 ng per oocyte) and the oocytes were incubated 3 days for expression. Thereafter the oocytes were incubated 30 min with Ori buffer adjusted to pH 6.5 or with Ori buffer adjusted to pH 6.5 containing 3 mM of the tested tripeptide. Thereafter oocytes were washed with Ori buffer (pH 7.4) and uptake of [^14C]AMG was measured.
It was furthermore elucidated whether in human small intestine the expression of hSGLT1 can be inhibited by oral ingestion of QCP. […] Thereafter the oocytes were washed with neutral Ori buffer and the hSGLT1 expressed uptake of 50 μM [^14C]AMG was measured (FIG. 7). QCP had no effect in oocytes in which hSGLT1 but not hPEPT1 was expressed (data not shown). However, in oocytes expressing hSGLT1 plus hPEPT1, [^14C]AMG uptake was inhibited by about 50% when the oocytes had been incubated with QCP (FIG. 7). Incubation of oocytes expressing hSGLT1 plus hPEPT1 with PCQ had no effect on the expressed uptake of [^14C]AMG.

[3] = 10 mM QCP in drinking water pH 6.0, 2 months, standard chow or sugar low diet
Description: The body weight development with and without peptide treatment is compared over 2 months.

hSGLT1 [4] = assay: hSGLT1 expressed [14C]AMG uptake in Xenopus oocytes after injection of hRS1 protein or hRS1 peptides; type: cell-based, human
[5] = tested on: sodium dependent amino acid transporters; conditions: 60 min, pH 6.5, 3 mM QCP, 10 mM amino acids
Description: Walls of small intestinal mucosa from mice are inserted into an Ussing chamber and transepitehial currents are measured that are induced by addition of 10 mM of various amino acids to the mucosal side. The intestinal walls are incubated for 60 min with buffer at pH 6.5 containing 0.1 mM D-glucose or with buffer at pH 6.5 containing 0.1 mM D-glucose plus 3 mM of QCP. After washing, amino acid induced transepithelial currents without and with preteatment with QCP are compared.

SGLT1 = conditions: 60 min pre-incubation, pH 6.5, 3 mM QCP, 0.1 mM D-glucose
Description: Walls of small intestinal mucosa from mice are inserted into an Ussing chamber and the SGLT1 mediated transepitehila currents are measured that are induced by addition of 0.1 mM D-glucose to the mucosal side. The intestinal walls are pre-incubated for 60 min with buffer at pH 6.5 containing 0.1 mM D-glucose or with buffer at pH 6.5 containing 0.1 mM D-glucose plus 3 mM of QCP. After washing glucose-induced transepithelial currents are measured.

**Q.** With `NCC(=O)N[C@@H](CCC(N)=O)C(=O)O` [GC, glycylglutamine, reference compound] (H-Gly-Gln-OH) as the molecule, how does the “inward currents in oocytes expressing hPEPT1” value (hPEPT1; 5 mM peptide, pH 6.5, clamped to -40 mV) read?
**A.** significant inward currents

**Q.** And the “inward currents in control oocytes not injected with hPEPT1 cRNA” value (hPEPT1; data not shown)?
**A.** no inward currents

**Q.** For `C[C@H]1CCC/C=C/[C@@H]2C[C@H](O)C[C@H]2[C@H](O)/C=C/C(=O)O1` [brefeldin A], which “immunoreactivity of RS1 at the perinuclear compartment” value [1] is on record?
**A.** disappeared within several minutes

**Q.** Which “hOCT2 expressed [14C]TEA uptake after injection” value (hOCT2) does the source give for Glutamine-Cysteine-Proline [QCP] here?
**A.** appears not to be inhibited

**Q.** And the “effect on AMG uptake in oocytes expressing hSGLT1 but not hPEPT1” value (hSGLT1 [2])?
**A.** no effect

**Q.** And the “inhibition of [14C]AMG uptake in oocytes expressing hSGLT1 plus hPEPT1” value (hSGLT1 [2])?
**A.** about 50%

**Q.** What about the body weight [3] of the same molecule?
**A.** body weight is reduced

**Q.** What about the “inward currents in control oocytes not injected with hPEPT1 cRNA” value (hPEPT1) of the same molecule?
**A.** no inward currents

**Q.** And the “inward currents in oocytes expressing hPEPT1” value (hPEPT1; pH 6.5)?
**A.** significant inward currents

**Q.** And the “AMG uptake inhibition in the absence of BTXB” value (hSGLT1 [4])?
**A.** inhibited

**Q.** And the “AMG uptake inhibition in the presence of BTXB” value (hSGLT1 [4])?
**A.** no significant inhibition

**Q.** And the “inhibition of glucose uptake expressed by hSGLT1” value (hSGLT1 [4])?
**A.** about 50%

**Q.** What about the “inhibition of hSGLT1 expressed AMG uptake after stimulation of protein kinase C” value (hSGLT1 [4]) of the same molecule?
**A.** not changed

**Q.** And the “inhibition of hSGLT1 expressed AMG uptake with coexpressed dominant negative mutant of dynamin I” value (hSGLT1 [4])?
**A.** not changed

**Q.** And the “inhibition of hSGLT1 expressed uptake of AMG after 3 h” value (hSGLT1 [4])?
**A.** 60%

**Q.** And the “inhibition of hSGLT1 expressed uptake of AMG after 5 h” value (hSGLT1 [4])?
**A.** about 40%

**Q.** And the “inhibition of hSGLT1 expressed uptake of AMG after 10 h” value (hSGLT1 [4])?
**A.** 20-30%

**Q.** And the “inhibitory effect on expression of hSGLT1 when the exocytotic pathway was blocked” value (hSGLT1 [4])?
**A.** could be prevented

**Q.** What about the “intracellular concentration of QCP at which 35-40% inhibition was obtained” value (hSGLT1 [4]) of the same molecule?
**A.** below 5 nM

**Q.** And the “inhibition of hSGLT1 expressed AMG uptake” value (hSGLT1 [4]; 0.05 µM)?
**A.** 35-40%

**Q.** What about the “transepithelial flux of amino acids” value [5] of the same molecule?
**A.** inhibits transepithelial flux of amino acids

**Q.** And the transepithelial glucose flux (SGLT1)?
**A.** inhibits transepithelial glucose flux

**Q.** Which results are given for “SDSDRIEP [Serine-Aspartic acid-Serine-Aspartic acid-Arginine-Isoleucine-Glutamic acid-Proline, octapeptide of hRS1, amino acid positions 43 to 50]”?
**A.** inhibition of glucose uptake expressed by hSGLT1 (hSGLT1 [4]): about 50%; inhibition of hSGLT1 expressed AMG uptake after stimulation of protein kinase C (hSGLT1 [4]): not changed; inhibition of hSGLT1 expressed AMG uptake with coexpressed dominant negative mutant of dynamin I (hSGLT1 [4]): not changed; inhibitory effect on expression of hSGLT1 when the exocytotic pathway was blocked (hSGLT1 [4]): could be prevented

**Q.** For “SVQPCQENQ [reverse nonapeptide of […], reference compound]”, which “inhibition of uptake of 50 μM [14C]AMG” value (hSGLT1 [4]; 50 nl/oocyte containing 1.5 mM peptide injected, 30 min) is on record?
**A.** No inhibition

Source: patent publication US8207133B1, “Peptides that down regulate the activity of plasma membrane transporters including sodium-D-glucose cotransporter SGLT1” (Julius-Maximilians-Universitat Wurzburg, priority 2005, dated 2012)
